Test system: Escherichia coli strain ATCC25922
Assay: standard microdilution assay to determine minimum inhibitory concentrations (MICs)
Format: cell-based
Settings: Escherichia coli, ATCC25922, Escherichia coli strain ATCC25922, microdilution; read-out: E. coli ATCC25922 MIC
In short: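 E. coli strain ATCC25922 tested per CLSI microdilution methodology (about 100 microliters per well) to find minimum inhibitory concentrations. Activity scored categorically at a 16 micrograms/ml threshold.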

| Structure (SMILES) | MIC |
| --- | --- |
| CS(=O)(=O)N1CCN(C(=O)c2ccc(-c3cn4cc(-c5ccc(CNCCCN)cc5)c(=O)nc4[nH]3)cc2)CC1 [Compound 701] | > 16 µg/mL |
| N=C(N)NCCCNCc1ccc(-c2cn3cc(-c4ccc(C(=O)N5C6CCC5CC(=O)C6)cc4)[nH]c3nc2=O)cc1 [Compound 703] | > 16 µg/mL |
| N=C(N)NCCCNCc1ccc(-c2cn3cc(-c4ccc(C(=O)N5CCC(F)(F)CC5)cc4)[nH]c3nc2=O)cc1 [Compound 704] | > 16 µg/mL |
| N=C(N)NCCCNCc1ccc(-c2cn3cc(-c4ccc(C(=O)NC5CCNC5)cc4)[nH]c3nc2=O)cc1 (centres unmarked) [Compound 705] | < 16 µg/mL |
| CN1CCN(C(=O)c2ccc(-c3cn4cc(-c5ccc(CNCCCNC(=N)N)cc5)c(=O)nc4[nH]3)cc2)CC1 [Compound 706] | < 16 µg/mL |
| NCCCNCc1ccc(-c2cn3nc(NC(=O)c4ccc(F)cc4)[nH]c3nc2=O)cc1 [Compound 709] | > 16 µg/mL |
| NCCCNCc1ccc(-n2cc3cc(-c4ccc(S(=O)(=O)N(CC5CC5)C5CCNCC5)cc4)[nH]c3nc2=O)cc1 [Compound 711] | < 16 µg/mL |
| N=C(N)NCCCNCc1ccc(-c2cn3cc(-c4ccc(C(=O)N5CCN(CCO)CC5)cc4)[nH]c3nc2=O)cc1 [Compound 713] | < 16 µg/mL |
| CS(=O)(=O)N1CCN(C(=O)c2ccc(-c3cn4cc(-c5ccc(CNCCCNC(=N)N)cc5)c(=O)nc4[nH]3)cc2)CC1 [Compound 716] | > 16 µg/mL |
| NCCCNCc1ccc(-c2cn3cc(-c4ccc(C(=O)NC56CC7CC(CC(C7)C5)C6)cc4)[nH]c3nc2=O)cc1 [Compound 717] | > 16 µg/mL |
| N=C(N)NCCCNCc1ccc(-n2cc3cc(CCNC4CCNCC4)[nH]c3nc2=O)cc1 [Compound 719] | < 16 µg/mL |
| CN(CCO)C(=O)c1ccc(-c2cn3cc(-c4ccc(CNCCCNC(=N)N)cc4)c(=O)nc3[nH]2)cc1 [Compound 720] | < 16 µg/mL |
| N=C(N)NCCCNCc1ccc(-c2cn3cc(-c4ccc(C(=O)N5CCN(c6ncccn6)CC5)cc4)[nH]c3nc2=O)cc1 [Compound 721] | > 16 µg/mL |
| N=C(N)NCCCNCc1ccc(-c2cn3cc(-c4ccc(C(=O)NCCCN5CCNCC5)cc4)[nH]c3nc2=O)cc1 [Compound 722] | < 16 µg/mL |
| NCCCNCc1ccc(-c2cn3cc(-c4ccc(C(=O)NN5CCOCC5)cc4)[nH]c3nc2=O)cc1 [Compound 723] | > 16 µg/mL |
| N=C(N)NCCCNCc1ccc(-c2cn3cc(-c4ccc(C(=O)NC56CC7CC(CC(C7)C5)C6)cc4)[nH]c3nc2=O)cc1 [Compound 724] | < 16 µg/mL |
| N=C(N)NCCCNCc1ccc(-n2cc3cc(-c4ccc(S(=O)(=O)N(Cc5ccc(Cl)c(Cl)c5)C5CCNCC5)cc4)[nH]c3nc2=O)cc1 [Compound 725] | < 16 µg/mL |
| NCCCNCc1ccc(-n2cc3cc(-c4ccc(S(=O)(=O)N(C5CCNCC5)C5CCOCC5)cc4)[nH]c3nc2=O)cc1 [Compound 726] | < 16 µg/mL |
| N=C(N)NCCCNCc1ccc(-n2cc3cc(-c4ccc(S(=O)(=O)N(C5CCNCC5)C5CCOCC5)cc4)[nH]c3nc2=O)cc1 [Compound 727] | < 16 µg/mL |
| N=C(N)NCCCNCc1ccc(-n2cc3cc(-c4ccc(S(=O)(=O)N(CC5CC5)C5CCNCC5)cc4)[nH]c3nc2=O)cc1 [Compound 728] | < 16 µg/mL |
| COc1ccccc1-c1nn2cc(-c3ccc(CNCCCN)cc3)c(=O)nc2[nH]1 [Compound 734] | > 16 µg/mL |
| CN(C(=O)c1ccc(-c2cn3cc(-c4ccc(CNCCCNC(=N)N)cc4)c(=O)nc3[nH]2)cc1)C1CCNCC1 [Compound 736] | < 16 µg/mL |
| CC(C)ONC(=O)c1ccc(-c2cn3cc(-c4ccc(CNCCCNC(=N)N)cc4)c(=O)nc3[nH]2)cc1 [Compound 737] | > 16 µg/mL |
| NCCCNCc1ccc(-c2cn3cc(-c4ccc(C(=O)N5CC6CC5CN6)cc4)[nH]c3nc2=O)cc1 (centres unmarked) [Compound 742] | < 16 µg/mL |
| NCCCNCc1ccc(-c2cn3cc(-c4ccc(S(=O)(=O)N5CC[C@@H](F)C5)cc4)[nH]c3nc2=O)cc1 [Compound 743] | > 16 µg/mL |
| N=C(N)NCCCNCc1ccc(-c2cn3cc(-c4ccc(S(=O)(=O)N5CCC(F)C5)cc4)[nH]c3nc2=O)cc1 (centres unmarked) [Compound 744] | > 16 µg/mL |

From patent US9193731B2, “Antimicrobial compounds and methods of making and using the same” (Melinta Therapeutics, Inc., priority 2009, dated 2015)
